“Also recorded” adds a separate entry of the source.
Key:
[1] = tested on: A549 human alveolar epithelial cells; experiment: Stimulation of A549 human lung carcinoma cell line, cytokine expression; format: cell-based; settings: A549, 10 ng/mL TNFα + 10 ng/mL IL-1β, 48 hours
Description: A549 cells are cultured in DMEM supplemented with 2 mM glutamine and 10% Fetal Bovine Serum (FBS) at 37° C. with 5% (v/v) CO2. Cells are grown to approximately 80% confluency before being passage and media is changed every 2-3 days. A549 cells are seeded in 24-well plates at a density of 0.5×10^6 cells per well at 37° C. with 5% (v/v) CO2. The cells are pre-treated with the compounds (0, 1.0, 10, 100 μM) for 1 hour prior to addition of 10 ng/mL of TNFα and 10 ng/mL of IL-1β for 48 hours at 37° C. with 5% (v/v) CO2. Supernatants were collected and stored at −80° C. until quantitative detection assays are performed.
Human Eotaxin, Monocyte Chemoattractant Protein-1 (MCP-1), Interleukin-6 (IL-6), Interleukin-25 (IL-25), Interleukin-33 (IL-33), Thymic stromal lymphopoietin (TSLP), and Granulocyte-Macrophage Colony-Stimulating Factor (GM-CSF) released from supernatants collected post stimulation were measured using Human Magnetic Luminex® Assay Kit. Human CCL5/RANTES was measured using an Enzyme-Linked Immunosorbent Assay (ELISA)-based analysis.

[2] = tested on: THP1 human macrophage cells; experiment: Stimulation of THP-1 cells, IL-6 at 6 or 36 hours post stimulation; format: cell-based; settings: THP1-derived macrophages, IFNγ + LPS, 0.1 to 500 μM, FIG. 9
[3] = tested on: THP-1 derived macrophages; experiment: Stimulation of THP-1 cells, cytokine release 72 h post stimulation; format: cell-based, human; settings: 72 h post stimulation (IFN-γ + LPS); 0.1, 1, 10, 100 or 200 μM vs 0 μM
Description: Human immortalized monocytic THP-1 cells were maintained in phenol red free RPMI 1640 medium containing 10% (v/v) fetal bovine serum (FBS), 2 mM L-glutamine, penicillin (100 units/mL), streptomycin (100 μg/mL), amphotericin B (2.5 μg/mL), and 50 μM beta-mercaptoethanol (BME) at 37° C. with 5% (v/v) CO2. THP-1 cells were seeded in 1 mL of THP-1 medium (cell culture medium containing 10% (v/v) FBS, 2 mM L-glutamine, penicillin (100 units/mL), streptomycin (100 μg/mL), amphotericin B (2.5 μg/mL), and 50 μM BME)/well at a density of 1 million cells/mL in six-well plates. Cells were differentiated by adding 100 nM phorbol 12-myristate 13-acetate (PMA) to each well before incubating cells for 5.5 h at 37° C. with 5% (v/v) CO2. Without removing the media, different concentrations (either 0, 0.1, 1, 10, 100, or 200 μM) of 1 and 10 were added to each well. Cells were stimulated, within 30 min by adding 20 ng/mL interferon gamma (IFN-γ) and 100 ng/mL lipopolysaccharide (LPS) to each well. Following stimulation, the THP-1 cells were incubated for 72 h at 37° C. with 5% (v/v) CO2. Supernatant was collected and stored at −80° C. until use.
IL-6 release from supernatant collected at 72 hours post stimulation was measured using the AlphaLISA Human IL-6 detection kit.
TNFα release from supernatant collected at 72 hours post stimulation was measured using the AlphaLISA Human TNFα detection kit.

[4] = tested on: EPC2 human esophageal keratinocytes; experiment: Stimulation of EPC2-hTERT human esophageal keratinocytes with Poly(I:C); format: cell-based; settings: 24 hours, increasing concentrations

Compound: C[C@H](CCCCC(=O)OC(C)(C)C)O[C@@H]1O[C@@H](C)[C@H](O)C[C@H]1O [Compound 10, tert-butyl (R)-6-(((2R,3R,5R,6S)-3,5-dihydroxy-6-methyltetrahydro-2H-pyran-2-yl)oxy)heptanoate]
- percent inhibition relative to Stimulated of GM-CSF expression ([1]; 1.0, 10, 100 μM, FIG. 16, 17): overall statistically significant, dose-dependent inhibition
- percent inhibition relative to Stimulated of IL-25 expression ([1]; 1.0, 10, 100 μM, FIG. 16, 17): overall statistically significant, dose-dependent inhibition
- percent inhibition relative to Stimulated of IL-33 expression ([1]; 1.0, 10, 100 μM, FIG. 16, 17): overall statistically significant, dose-dependent inhibition
- percent inhibition relative to Stimulated of MCP-1 expression ([1]; 1.0, 10, 100 μM, FIG. 16, 17): overall statistically significant, dose-dependent inhibition
- percent inhibition relative to Stimulated of Eotaxin expression ([1]; FIG. 18): robust, statistically significant inhibition
- percent inhibition relative to Stimulated of IL-6 expression ([1]; FIG. 18): robust, statistically significant inhibition
- percent inhibition relative to Stimulated of RANTES expression ([1]; FIG. 18): robust, statistically significant inhibition
- percent inhibition relative to Stimulated of TSLP expression ([1]; FIG. 18): robust, statistically significant inhibition
- percent inhibition relative to Control of IL-6 levels secreted [2]: inhibited IL-6 expression in statistically significant, dose-dependent manner
- fold change of IL-6 levels secreted by the THP1-derived macrophages [3]: reduced these levels significantly; also recorded: even more significantly reduced
- fold change of TNFα levels secreted by the THP1-derived macrophages [3]: reduced these levels significantly
- percent inhibition relative to Stimulated of TSLP expression ([4]; FIG. 19A): statistically significant inhibition; also recorded: robust blocking
- percent inhibition relative to Stimulated of IL-6 expression ([4]; FIG. 19B): inhibited IL-6 expression in statistically significant, dose-dependent manner
- percent inhibition relative to Stimulated of MCP-1 expression ([4]; FIG. 19C): inhibited MCP-1 expression in statistically significant, dose-dependent manner

Source: US11845770B2, “Ascaroside derivatives and methods of use” (California Institute of Technology, priority 2019, dated 2023)
